How the values were obtained:
Experiment in all cases: Inhibition Assay
Conditions in all cases: pH 8; 25 °C
[1] = target: T1, Inosine-5'-monophosphate dehydrogenase (Borreliella burgdorferi (strain ATCC 35210 / DSM 4680 / CIP 102532 / B31), UniProt P49058)
T1 sequence (P49058 whole entry): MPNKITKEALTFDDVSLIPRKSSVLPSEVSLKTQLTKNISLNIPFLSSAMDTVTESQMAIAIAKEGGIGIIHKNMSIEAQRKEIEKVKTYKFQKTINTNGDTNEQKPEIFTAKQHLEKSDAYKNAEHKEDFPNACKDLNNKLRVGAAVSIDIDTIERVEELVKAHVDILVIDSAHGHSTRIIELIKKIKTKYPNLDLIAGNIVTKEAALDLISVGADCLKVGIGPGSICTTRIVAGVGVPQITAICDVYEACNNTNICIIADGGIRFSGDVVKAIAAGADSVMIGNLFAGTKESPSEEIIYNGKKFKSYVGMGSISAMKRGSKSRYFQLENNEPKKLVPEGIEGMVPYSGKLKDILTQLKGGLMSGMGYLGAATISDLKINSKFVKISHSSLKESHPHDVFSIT
Excerpt: (§1) Inhibition assay using inosine 5'-onophosphate dehydrogenase (IMPD).

[2] = target: Inosine-5'-monophosphate dehydrogenase (Streptococcus pyogenes, UniProt P0C0H6)
Sequence of Inosine-5'-monophosphate dehydrogenase (Streptococcus pyogenes, UniProt P0C0H6) (P0C0H6 whole entry): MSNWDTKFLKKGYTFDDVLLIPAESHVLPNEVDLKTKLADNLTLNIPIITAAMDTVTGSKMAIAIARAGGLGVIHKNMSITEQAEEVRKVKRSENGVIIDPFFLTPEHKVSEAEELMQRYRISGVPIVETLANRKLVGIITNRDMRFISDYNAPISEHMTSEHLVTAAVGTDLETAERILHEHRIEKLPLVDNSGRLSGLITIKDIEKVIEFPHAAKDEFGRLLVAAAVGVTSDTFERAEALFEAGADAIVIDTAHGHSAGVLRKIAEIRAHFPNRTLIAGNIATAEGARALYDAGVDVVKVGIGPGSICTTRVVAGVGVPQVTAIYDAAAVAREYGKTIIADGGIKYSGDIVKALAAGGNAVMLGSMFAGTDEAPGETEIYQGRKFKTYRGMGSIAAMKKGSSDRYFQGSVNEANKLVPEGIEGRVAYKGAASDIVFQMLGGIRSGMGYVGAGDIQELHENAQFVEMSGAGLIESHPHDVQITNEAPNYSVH
Excerpt: as §1

[3] = target: T2, Inosine-5'-monophosphate dehydrogenase (Cryptosporidium parvum, UniProt Q8T6T2)
T2 sequence (Q8T6T2 whole entry): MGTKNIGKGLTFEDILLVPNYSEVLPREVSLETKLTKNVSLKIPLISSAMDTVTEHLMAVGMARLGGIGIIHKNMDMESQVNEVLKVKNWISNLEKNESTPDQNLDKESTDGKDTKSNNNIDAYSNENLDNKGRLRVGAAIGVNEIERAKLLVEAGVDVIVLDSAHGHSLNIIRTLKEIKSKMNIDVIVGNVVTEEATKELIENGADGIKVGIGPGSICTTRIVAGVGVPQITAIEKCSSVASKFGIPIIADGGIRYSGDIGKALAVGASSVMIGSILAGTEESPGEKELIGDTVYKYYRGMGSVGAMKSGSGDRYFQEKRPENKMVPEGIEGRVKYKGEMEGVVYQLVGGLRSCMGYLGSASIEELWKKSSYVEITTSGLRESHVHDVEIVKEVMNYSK
Excerpt: as §1

[4] = target: T3, Inosine-5'-monophosphate dehydrogenase (Helicobacter pylori (strain G27), UniProt B5Z7J4)
T3 sequence (B5Z7J4 whole entry): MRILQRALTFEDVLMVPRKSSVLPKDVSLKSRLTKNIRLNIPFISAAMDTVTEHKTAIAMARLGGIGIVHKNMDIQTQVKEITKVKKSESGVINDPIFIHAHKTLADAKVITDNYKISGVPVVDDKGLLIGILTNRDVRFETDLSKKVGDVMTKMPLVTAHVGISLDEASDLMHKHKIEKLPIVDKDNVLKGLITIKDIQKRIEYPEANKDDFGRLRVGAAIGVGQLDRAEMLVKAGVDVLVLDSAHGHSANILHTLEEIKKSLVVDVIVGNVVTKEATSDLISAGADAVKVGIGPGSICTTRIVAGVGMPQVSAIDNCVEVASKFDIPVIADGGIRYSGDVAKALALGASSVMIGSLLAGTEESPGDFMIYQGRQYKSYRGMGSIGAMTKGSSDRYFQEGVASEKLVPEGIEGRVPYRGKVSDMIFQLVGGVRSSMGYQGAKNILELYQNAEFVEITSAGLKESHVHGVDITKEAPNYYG
Excerpt: as §1

Compound	IC50 [1] [nM]	IC50 [2] [nM]	IC50 [3] [nM]	IC50 [4] [nM]
O=C(Cn1c(-c2ccccn2)nc2ccccc21)Nc1ccc2ccccc2c1 [N-(naphthalen-2-yl)-2-[2-(pyridin-2-yl)-1H-1,3-benzodiazol-1-yl]acetamide, Compound C91]	–	5.4	8	1.1
CC(Oc1ccccc1)C(=O)Nc1ccc(Cl)cc1 (centres undefined)	1400	96000	–	2200
COc1ccc(NC(=O)Cc2nn(C)c(=O)c3ccccc23)cc1 [N-(4-methoxyphenyl)-2-(3-methyl-4-oxo-3,4-dihydrophthalazin-1-yl)acetamide, Compound D]	1700	49000	5400	3000
COC(=O)c1c(C)c(=O)[nH]c2ccccc12 [methyl 3-methyl-2-oxo-1,2-dihydroquinoline-4-carboxylate, Compound E]	900	15000	1600	1500
COc1ccc(NC(=O)Cc2cccc3ccccc23)cc1 [N-(4-methoxyphenyl)-2-(naphthalen-1-yl)acetamide, Compound B]	1800	85000	1600	1300

Further molecules by falling IC50 [1], results first:

IC50 [1] [nM]	IC50 [2] [nM]	IC50 [3] [nM]	IC50 [4] [nM]	Compound
900	860	900	1200	Nc1ccc(C(=O)OCCCc2nc3cc4ccccc4cc3[nH]2)cc1 [3-{1H-naphtho[2,3-d]imidazol-2-yl}propyl 4-aminobenzoate, Compound H]
800	13000	1400	1100	CCn1c(SCC(=O)Nc2ccc(OC)cc2)nc2ccsc2c1=O [l-4-oxo-3H,4H-thieno[3,2-d]pyrimidin-2-yl}sulfanyl)-N-(4-methoxyphenyl)acetamide, Compound F]
600	70000	1200	600	COc1ccc(NC(=O)Cn2c(-c3cscn3)nc3ccccc32)cc1 [N-(4-methoxyphenyl)-2-[2-(1,3-thiazol-4-yl)-1H-1,3-benzodiazol-1-yl]acetamide, Compound C]
220	550	100	300	Nc1ccc(C(=O)OCc2nc3cc4ccccc4cc3[nH]2)cc1 [1H-naphtho[2,3-d]imidazol-2-ylmethyl 4-aminobenzoate, Compound G]
